Experimental data reported in patent US20240174727A1, “LONG-ACTING NATRIURETIC PEPTIDES AND USES THEREOF” (Eli Lilly and Company, priority 2022, published 2024).
Like-named read-outs stand apart in the source and are kept apart here. Numbered stars: 1 amine (or outer) side, 2 acyl side, 3 side chain; on linkers, the order of the positions; unused ones are H or OH. Bridge positions count the residues as written; N and C are the ends. * marks the point of attachment. C20 diacid = O=C(O)CCCCCCCCCCCCCCCCCCC(=O)*; γGlu = O=C(O)[C@H](CCC(=O)[*:2])N[*:1]; CH2 = C([*:1])[*:2]

Target: T1, rat NPRA (Rattus norvegicus, UniProt P18910)
T1 construct: Full-Length cDNA Cloning and Generation of Cell Lines Overexpressing Natriuretic Peptide Receptors (NPRs); expressed in transfected cells; host or cells: Jump-in T-Rex HEK293 cells, pJTI R4 CMV-TO MCS pA vector, tetracycline induction
T1 sequence (P18910 29-1057): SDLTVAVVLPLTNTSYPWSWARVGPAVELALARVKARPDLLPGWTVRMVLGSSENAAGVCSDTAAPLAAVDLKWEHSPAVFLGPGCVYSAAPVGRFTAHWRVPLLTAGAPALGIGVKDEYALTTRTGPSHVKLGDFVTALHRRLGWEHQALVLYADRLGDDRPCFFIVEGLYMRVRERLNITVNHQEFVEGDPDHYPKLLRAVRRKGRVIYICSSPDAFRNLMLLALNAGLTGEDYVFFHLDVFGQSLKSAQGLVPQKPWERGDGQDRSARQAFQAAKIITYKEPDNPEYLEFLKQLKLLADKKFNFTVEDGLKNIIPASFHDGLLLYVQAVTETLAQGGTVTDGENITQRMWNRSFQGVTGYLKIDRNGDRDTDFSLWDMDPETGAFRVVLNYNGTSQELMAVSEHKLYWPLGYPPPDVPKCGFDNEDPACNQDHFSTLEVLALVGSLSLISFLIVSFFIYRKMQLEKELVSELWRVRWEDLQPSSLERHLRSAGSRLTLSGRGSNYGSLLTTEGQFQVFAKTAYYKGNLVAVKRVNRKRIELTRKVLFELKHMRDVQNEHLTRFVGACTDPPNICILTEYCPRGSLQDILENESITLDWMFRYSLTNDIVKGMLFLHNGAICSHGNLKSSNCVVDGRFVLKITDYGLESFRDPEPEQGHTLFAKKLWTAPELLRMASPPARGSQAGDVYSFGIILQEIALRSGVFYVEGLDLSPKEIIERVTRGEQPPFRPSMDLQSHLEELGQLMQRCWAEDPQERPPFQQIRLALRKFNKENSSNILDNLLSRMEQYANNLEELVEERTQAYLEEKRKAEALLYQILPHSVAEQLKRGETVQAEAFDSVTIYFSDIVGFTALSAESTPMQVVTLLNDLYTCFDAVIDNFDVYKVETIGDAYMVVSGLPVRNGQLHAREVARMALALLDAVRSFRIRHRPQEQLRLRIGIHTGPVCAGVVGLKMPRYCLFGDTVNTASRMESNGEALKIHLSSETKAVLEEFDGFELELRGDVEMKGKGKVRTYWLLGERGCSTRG
Test: Rat NPRA cGMP activity assay (HTRF) in HEK293 cells overexpressing NPRA
Format: cell-based
Description: All sequences were verified by full-length sequencing performed by ACGT DNA Sequencing Services (Wheeling, IL). The target cDNA was cloned into pJTI R4 CMV-TO MCS pA vector and then co-transfected with pJT1R4 Int vector into Jump-in™ T-Rex™ HEK293 cells for mammalian inducible expression using Jump-in™ T-Rex™ HEK293 kit and Lipofectamine LTX and Plus Reagent following manufacturer's protocols, as briefly described below.
Jump-in™ T-Rex™ HEK293 cells were plated in a BioCOAT® poly-D-lysine coated 6-well plate (Becton Dickinson, cat no. 354413) at 1 million cells/well in 2 mL culture medium and incubated for 18 h at 37° C. and 5% CO2 to 50-70% confluence. A cDNA mix was made in a 50 mL tube by adding 1.5 μg target cDNA, 1.5 μg pJT1R4 Int vector, 3 μL Plus Reagent, and 300 μL Opti-MEM I sequentially into the tube. A reagent mix was made in a separate 50 mL tube by adding 7.5 μL Lipofectamine LTX into 300 μL Opti-MEM I. The mixtures were incubated for 5 min at room temperature. The cDNA mix was then transferred into the reagent mix, mixed well, and incubated for additional 30 min at room temperature. A 500 μL of cDNA/Lipofectamine complex was then transferred to the wells of the cell plate in which the culture medium was changed to 2 mL of transfection medium containing DMEM with 4.5 g/L D-glucose supplemented with 10% FBS-HI and 20 mM HEPES. Transfected cells were cultured for 48 h in an incubator at 37° C. and 5% CO2. A subclone or pool from each overexpressing cell line was maintained in culture medium with the addition of 2 mg/mL G418 sulfate for the clone selection based on its built-in resistance to G418 sulfate for at least 3 weeks with medium changed every 2-3 days.
NPRs were overexpressed in T-Rex™ HEK293 cells following the induction with 300 ng/mL tetracycline in culture medium for 48 h. Induced cell lines in an exponential growth phase were treated with 0.05% trypsin-EDTA for a few seconds at room temperature, harvested in cell medium containing FBS to neutralize the trypsin, counted, and cryopreserved at the density of 2 million cells/mL in cell preservation solution containing FBS-HI with 5% DMSO. Cryopreserved cells were stored at −80° C. for a few days prior to transferring to a liquid nitrogen tank. Induced cell lines were then used for suspension assays to measure the activity of polypeptides to stimulate cGMP production in cGMP assays or for the preparation of cell membranes to measure the binding activity of polypeptides in competitive radioligand binding assays, as described below.
Test polypeptides were added starting at 10 μM concentration and at 10-fold decreasing concentrations to obtain 8-point concentration-response curves (i.e., 10 μM to 1 pM). The quantity of cGMP generated was detected using HTRF® technology and normalized to maximum amount produced by 100 nM amidated rat ANP and the minimum amount produced by assay buffer. Detailed steps are outlined below.
Stock solutions of test polypeptides (2 mM) dissolved in DMSO were first diluted 100-fold in assay buffer containing HBSS with Ca^2+ and Mg^2+, 5 mM HEPES, 0.5 mM IBMX, and 0.1% BSA or 0.1% casein (pH 7.4). The polypeptides were further serially diluted in 1:10 dilution steps in assay buffer containing 0.1% BSA or 0.1% casein to generate 8-point 2× working stock solutions ranging from 20 μM to […].
A 10 μL cell suspension containing 4000 cells was plated in Costar® half-area white opaque 96-well plates (Corning, cat no. 3693). Then 10 μL of assay buffer (basal activity), 200 nM of amidated rat ANP (maximum activity) or 2× working stock solutions of test polypeptides were transferred into the plate. Final concentration of DMSO in each well was 0.5%. The plate was shaken for 15 sec and then incubated for 40 min at room temperature.
The cGMP generated was measured using cGMP kit following the manufacturer's directions, as described below.

[1] = cGMP Assay (EC50, pM) w/BSA rNPRA, assay buffer with 0.1% BSA
[2] = cGMP Assay (EC50, pM) w/Casein rNPRA, assay buffer with 0.1% casein

Molecule	EC50 [1] [pM]	EC50 [2] [pM]	EC50 (assay buffer with 0.1% casein, read-out: cGMP Assay (EC50, pM) w/Casein rNPRA) [pM]
CC[C@H](C)[C@@H]1NC(=O)[C@H](CCCNC(=N)N)NC(=O)[C@H](CC(=O)O)NC(=O)[C@H]([C@@H](C)CC)NC(=O)[C@H](CCCNC(=N)N)NC(=O)[C@H](CCCCN)NC(=O)CNC(=O)[C@H](Cc2ccccc2)NC(=O)[C@@H](NC(=O)[C@H](CO)NC(=O)[C@H](CO)NC(=O)[C@H](CCCNC(=N)N)NC(=O)[C@H](CCCNC(=N)N)NC(=O)[C@H](Cc2ccncc2)NC(=O)[C@H](CO)NC(=O)COCCOCCNC(=O)COCCOCCNC(=O)COCCOCCNC(=O)COCCOCCNC(=O)COCCOCCNC(=O)COCCOCCNC(=O)COCCOCCNC(=O)COCCOCCNC(=O)CNC(=O)[C@H](CCCCN)NC(=O)[C@H](CCC(=O)O)NC(=O)[C@H](CCCCN)NC(=O)[C@H](CCC(=O)O)NC(=O)[C@H](CCCCN)NC(=O)[C@H](CCC(=O)O)NC(=O)CC[C@H](NC(=O)CCCCCCCCCCCCCCCCCCC(=O)O)C(=O)O)CSCSC[C@@H](C(=O)N2CCC[C@H]2C(=O)N[C@@H](CO)C(=O)N[C@@H](Cc2ccccc2)C(=O)N[C@@H](CCCNC(=N)N)C(=O)N[C@@H](Cc2c[nH]cn2)C(=O)NCC(=O)N[C@@H](CO)C(=O)N2CCC[C@H]2C(=O)N[C@@H](CO)C(=O)N[C@@H](CO)C(=O)NCC(=O)N[C@@H](C)C(=O)N2CCC[C@H]2C(=O)N2CCC[C@H]2C(=O)N2CCC[C@H]2C(=O)N[C@@H](CO)C(N)=O)NC(=O)CNC(=O)[C@H](CC(C)C)NC(=O)CNC(=O)[C@H](CO)NC(=O)[C@H](Cc2ccc(O)cc2)NC(=O)[C@H](Cc2c[nH]cn2)NC(=O)CNC1=O [Example 107]	149000	3770	
CC[C@H](C)[C@@H]1NC(=O)[C@H](CCCNC(=N)N)NC(=O)[C@H](CC(=O)O)NC(=O)[C@H]([C@@H](C)CC)NC(=O)[C@H](CCCNC(=N)N)NC(=O)[C@H](CCCCN)NC(=O)CNC(=O)[C@H](Cc2ccccc2)NC(=O)[C@@H](NC(=O)[C@H](CO)NC(=O)[C@H](CO)NC(=O)[C@H](CCCNC(=N)N)NC(=O)[C@H](CCCNC(=N)N)NC(=O)[C@H](Cc2ccncc2)NC(=O)[C@H](CO)NC(=O)COCCOCCNC(=O)COCCOCCNC(=O)COCCOCCNC(=O)COCCOCCNC(=O)COCCOCCNC(=O)COCCOCCNC(=O)CNC(=O)[C@H](CCCCN)NC(=O)[C@H](CCC(=O)O)NC(=O)[C@H](CCCCN)NC(=O)[C@H](CCC(=O)O)NC(=O)[C@H](CCCCN)NC(=O)[C@H](CCC(=O)O)NC(=O)CC[C@H](NC(=O)CCCCCCCCCCCCCCCCCCC(=O)O)C(=O)O)CSCSC[C@@H](C(=O)N2CCC[C@H]2C(=O)N[C@@H](CO)C(=O)N[C@@H](Cc2ccccc2)C(=O)N[C@@H](CCCNC(=N)N)C(=O)N[C@@H](Cc2c[nH]cn2)C(=O)NCC(=O)N[C@@H](CO)C(=O)NCC(=O)N[C@@H](CO)C(=O)N2CCC[C@H]2C(=O)N[C@@H](CO)C(=O)N[C@@H](CO)C(=O)NCC(=O)N[C@@H](C)C(=O)N2CCC[C@H]2C(=O)N2CCC[C@H]2C(=O)N2CCC[C@H]2C(=O)N[C@@H](CO)C(=O)NCC(N)=O)NC(=O)CNC(=O)[C@H](CC(C)C)NC(=O)CNC(=O)[C@H](CO)NC(=O)[C@H](Cc2ccc(O)cc2)NC(=O)[C@H](Cc2c[nH]cn2)NC(=O)CNC1=O [Example 117]	200000		
CC[C@H](C)[C@@H]1NC(=O)[C@H](CCCNC(=N)N)NC(=O)[C@H](CC(=O)O)NC(=O)[C@H]([C@@H](C)CC)NC(=O)[C@H](CCCNC(=N)N)NC(=O)[C@H](CCCCN)NC(=O)CNC(=O)[C@H](Cc2ccccc2)NC(=O)[C@@H](NC(=O)[C@H](CO)NC(=O)[C@H](CO)NC(=O)[C@H](CCCNC(=N)N)NC(=O)CCNC(=O)[C@H](CCCCN)NC(=O)[C@H](CCC(=O)O)NC(=O)COCCOCCNC(=O)COCCOCCNC(=O)COCCOCCNC(=O)COCCOCCNC(=O)COCCOCCNC(=O)COCCOCCNC(=O)COCCOCCNC(=O)COCCOCCNC(=O)CNC(=O)[C@H](CCCCN)NC(=O)[C@H](CCC(=O)O)NC(=O)[C@H](CCCCN)NC(=O)[C@H](CCC(=O)O)NC(=O)[C@H](CCCCN)NC(=O)[C@H](CCC(=O)O)NC(=O)CC[C@H](NC(=O)CCCCCCCCCCCCCCCCCCC(=O)O)C(=O)O)CSCSC[C@@H](C(=O)N2CCC[C@H]2C(=O)N[C@@H](CO)C(=O)N[C@@H](Cc2ccccc2)C(=O)N[C@@H](CCCNC(=N)N)C(=O)N[C@@H](Cc2c[nH]cn2)C(=O)NCC(=O)N[C@@H](CO)C(=O)N2CCC[C@H]2C(=O)N[C@@H](CO)C(=O)N[C@@H](CO)C(=O)NCC(=O)N[C@@H](C)C(=O)N2CCC[C@H]2C(=O)N2CCC[C@H]2C(=O)N2CCC[C@H]2C(=O)N[C@@H](CO)C(N)=O)NC(=O)CNC(=O)[C@H](CC(C)C)NC(=O)CNC(=O)[C@H](CO)NC(=O)[C@H](CCC(N)=O)NC(=O)[C@H](Cc2c[nH]cn2)NC(=O)CNC1=O [Example 120]			25400
{C20 diacid-γGlu}-EKEKEKGEKPRSSCFGKRIDRIGHQSGLGCPSFRHGSGSPSSGAPPPSG-NH2 (linker 14-30 via CH2) [Example 131]		2160	
